Reference: US20080096903A1, “SULFAMOYL-CONTAINING DERIVATIVES AND USES THEREOF” (Wyeth, priority 2006, published 2008)

Assays:
protein synthesis = conditions: literature reports; cited from earlier work
mice = conditions: Takahashi and Bepu, J. Antibiotics 1982; cited from earlier work
Hsp90α Protein = Hsp90α Protein (Homo sapiens, UniProt P07900); assay: Hsp90 CE Competitive Binding Assay (displacement of fluorescein-labelled geldanamycin)
Experimental: Hsp90 CE Competitive Binding Assay: […]
b) “Competitor”, fluorescein-labelled geldanamycin • The competitor was synthesized as described by Llauger-Bufi et al, Bioorg.
The electrophoresis running buffer (RB) is comprised of 200 mM CAPSO, pH 9.2 (pH-adjusted with Trizma base). The sample buffer (SB) is comprised of 10 mM Trizma base, pH 8.0 (pH-adjusted with glacial acetic acid), 5 mM MgCl2, 5 mM DTT, and BSA and Triton as noted.
Capillary electrophoresis was performed on Cetek Gemini Systems™ using laser-induced fluorescence detection. Fused-silica capillaries (50 μm I.D.×30 cm, approximately 10 cm length from end to detection window) were internally coated using Cetek's proprietary methods.
Each sample (i.e., fermentation extract, partially-purified fraction, or compound mixture, or pure compound) to be assayed is prediluted 1:20 or 1:40 in SB containing 0.02% Triton. 1 μl of each prediluted sample is then deposited into a 96-well microtiter plate and mixed with 8 μl of Target Cocktail. These samples can be stored at 4° C. until ready for assay.
When ready for analysis, the plates are transferred to the deck of a Gemini System. To each mixture of sample and target, 1 μl of Competitor Cocktail is added and mixed thoroughly. This reaction mixture is allowed to incubate for 8 minutes on the refrigerated deck of the Gemini System (temperature 8° C.). During incubation, the CE capillary is rinsed for 30 seconds with RB containing 2 mg/ml BSA, and then 60 seconds with RB. At the end of incubation, a small plug of the reaction mixture is then injected into the capillary at low pressure (0.5 psi) for 7 seconds. The loaded capillary is then dipped into reservoirs containing RB and the sample is electrophoresed at 10 kV for 6 minutes at a temperature of 8° C.
The electrophoretic separation produces a graphical profile known as an “electropherogram,” which contains a peak representing the intact complex between Hsp90 and competitor, and a smaller series (typically, a triplet) of peaks representing unbound competitor. […] Dose-response experiments, which evaluate the degree of competitor displacement as a function of sample concentration, are subsequently run in triplicate to validate hits and to quantitate their potencies, which are expressed as IC50 values.
Negative controls are comprised of 0.5% DMSO, and positive controls are comprised of 0.1 μg/ml 17-AAG.

HSP90alpha protein = HSP90alpha protein (Homo sapiens, UniProt P07900); assay: Hsp90alpha and BODIPY-Geldanamycin Fluorescent Polarization Binding Assay; conditions: 5 nM BODIPY GA, 30 nM Hsp90alpha
Experimental: Hsp90alpha and BODIPY-Geldanamycin Fluorescent Polarization Binding Assay Materials • HSP90alpha protein (Stressgen SPP-776) and BODIPY Labeled Geldanamycin (GA) was added to assay buffer stock (stored at 4 C): 20 mM Hepes pH 7.3, 50 mM KCl, 20 mM NaMoO4, 0.01% NP40 • Working Assay buffer: assay buffer stock @RT with freshly added 2 mM DTT and 0.1 mg/ml • Bovine Gamma Globulin (Panvera P2045, 5 mg/ml) • Black 96well micro titer plates (Thermo #7205, vwr# 25227-304) Sample Set-up and Controls • Competitive Binding Samples: 5 nM GA and 30 nM Hsp90alpha and inhibitor • Control Samples: buffer only, BODIPY GA only, BODIPY GA plus Hsp90alpha, BODIPY GA plus • Hsp90alpha and unlabeled GA Protocol 1. Prepare working assay buffer with Hsp90alpha protein at a final concentration of 30 nM per well in 100 ul final volume. Add 85 ul of this solution per well to 96 well black micro titer plate. (for 20 ml assay buffer add 400 ul 1 M DTT stk and 400 ul 5 mg/ml BGG stk) (1 mg/ml Hsp90 stock=˜11 uM protein; want 0.03 uM final in 100 ul, so adjust to 0.035 uM in 85 ul which is 1:314 fold dilution into assay buffer=64 ul protein plus 20 ml buffer to dispense 85 ul/well). 2. Add 5 ul of inhibitors @ 20× final desired concentration. For 10 ug/ml start, the overall dilution from 1 mg/ml stocks is 1:100. […] Use Wallac Envision to read FP using protocol: JENs FP FITC Dual in room 4603. (parameters are: mirror module-FITC FP dual, excitation filter-FITC FP 480, emission filters-FITC FP P-pol 535 and FITC FP S-pol 535) Analysis of Results The Envision instrument automatically prepares a calculation based on the readings it obtains from the two measurements. […] By adjusting G to 0.96 or 0.97, the FP measurement calculation will result in a “0” reading for BODIPY GM without Hsp90. […] IC50s will be determined manually from percent polarization values plotted in Microsoft Excel. […]

IC50 (HSP90alpha protein) [nM]	SMILES	inhibition of protein synthesis (protein synthesis)	toxicity to mice (mice)	HSP90 inhibition / binding (in words) (Hsp90α Protein)	IC50 (Hsp90α Protein; initial structure activity relationship table, read-out: HSP90 CE IC50) [nM]
–	Nc1nc(Cl)nc2c1ncn2C1OC(COS(N)(=O)=O)C(O)C1O (stereo not shown) [CSA, 2-chloro-5′-sulfamoyladenosine, reference compound]	inhibit protein synthesis	toxic to mice	inhibits HSP90	1000
180	Nc1nc(F)nc2c1nc(Cc1cc3c(cc1I)OCO3)n2Cc1cn(CCOS(N)(=O)=O)nn1 [Example 16A, Sulfamic Acid 2-(4-((6-amino-2-fluoro-8-((6-iodobenzo[d][1,3]dioxol-5-yl)methyl)-9H-purin-9-yl)methyl)-1H-1,2,3-triazol-1-yl)ethyl ester]	–	–	–	–
390	Nc1nc(F)nc2c1nc(Cc1cc3c(cc1I)OCO3)n2Cc1cn(CCCOS(N)(=O)=O)nn1 [Example 16B, Sulfamic Acid 3-[4-({6-amino-2-fluoro-8-[(6-iodo-1,3-benzodioxol-5-yl)methyl]-9H-purin-9-yl}methyl)-1H-1,2,3-triazol-1-yl]propyl ester]	–	–	–	–
140	Nc1nc(F)nc2c1nc(Cc1cc3c(cc1I)OCO3)n2CC#CCN1CCC(OS(N)(=O)=O)C1 (stereo not shown) [Example 160]	–	–	–	–
